In patent publication US20210221812A1, “MATRINE a-KETOAMINE COMPOUNDS, PREPARATION METHOD THEREFOR AND USE THEREOF” (SHANGHAI XINGYE PHARMACEUTICAL TECHNOLOGY CO., LTD, priority 2018, published 2021):
Like-named read-outs stand apart in the source and are kept apart here.

Experiments:
k562 cells [1] = test: MTT tumor cell growth inhibition, k562; format: cell-based; details: 48 h, read-out: Tumors growth-inhibitory activity (IC50) k562
Procedure: (§1) Using MTT method to determine the growth inhibition activity of the matrine compounds on Lovo, MGC-803, Mia-paca2, HpeG-2, A549, k562, and Panc-1 cells in vitro. Logarithmic growth phase of Lovo, MGC-803, Mia-paca2, HpeG-2, A549, k562, Panc-1 cells were inoculated into 96-well plates (purchased from Institute of Biochemical Cells, Chinese Academy of Sciences, and cultured according to conventional tumor cell culture methods) at a density of 4×10^4/mL and 180 μL/well; after the cells adhered to the wall, 20 μL of drug solution was added to each well and matined the final drug concentrations were 0.1 μM, 1 μM, 10 μM, 50 μM, 100 μM respectively. After 48 h, 5 mg/mL MTT solution was added (20 μL/well) and maintained in a CO2 incubator for 3-4 h. After that, discarding the supernatant carefully, and DMSO was added (200 μL/well) when the residual liquid was air-dried, and shook for 0.5-1 h until the residual crystals was dissolved. The absorbance OD was measured at 492 nm by a microplate reader. GraphPad Prism 5 software was used to calculate the IC50 value.

TNF-α = TNF-α activity inhibiting assay (LPS-stimulated peripheral blood, ELISA); format: cell-based, human; details: compound 20 μM, LPS 10 ng/mL, 6 hours, diluted peripheral blood of healthy volunteers; for inhibition at 20 µM: Homo sapiens, read-out: TNF-α inhibition rate (%)
Procedure: Methods: Peripheral blood from healthy volunteers was collected with EDTA anticoagulant tubes. After being diluted 5-fold with 1640 medium (Gibco, USA), the blood was added to 96-well cell culture plates (Costar, USA) and then treated with 10 μL solution of the compound of general formula (I) of the present invention in DMSO (Sigma, USA), the final concentration of the compound was 20 μM with the final concentration of DMSO was 0.2%. After incubation for 60 minutes in an incubator at 37° C. under 5% CO2, 10 μL LPS (Sigma, USA) was added to the reaction system, and the final concentration was 10 ng/mL. After further culturing for 6 hours in the incubator at 37° C. under 5% CO2, the supernatant was collected. The content of TNF-α was determined by ELISA (BD Biosciences, USA). Absorbance was detected at OD450 nm with a microplate reader, with OD 650 nm as reference. The control, a solution containing 0.2% DMSO medium, was as 0% inhibition. Raw data and standard curves were recorded. The four-parameter drug inhibition curve was plotted by XL-fit software and the inhibition rate of each compound was calculated.

Mia-paca2 cells = test: MTT tumor cell growth inhibition, Mia-paca2; format: cell-based; details: read-out: Tumors growth-inhibitory activity (IC50) Mia-paca2
Procedure: as §1

A549 cells [2] = test: MTT tumor cell growth inhibition, A549; format: cell-based; details: 48 h, read-out: Tumors growth-inhibitory activity (IC50) A549
Procedure: as §1

Panc-1 cells [3] = test: MTT tumor cell growth inhibition, Panc-1; format: cell-based; details: 48 h, read-out: Tumors growth-inhibitory activity (IC50) Panc-1
Procedure: as §1

Lovo cells [4] = test: MTT tumor cell growth inhibition, Lovo; format: cell-based; details: 48 h, read-out: Tumors growth-inhibitory activity (IC50) Lovo
Procedure: as §1

MGC-803 cells = test: MTT tumor cell growth inhibition, MGC-803; format: cell-based; details: 48 h, read-out: Tumors growth-inhibitory activity (IC50) MGC-803
Procedure: as §1

HpeG-2 cells [5] = test: MTT tumor cell growth inhibition, HpeG-2; format: cell-based; details: 48 h, read-out: Tumors growth-inhibitory activity (IC50) HpeG-2
Procedure: as §1

Panc-1 cells [6] = test: Anti-tumor activity of NK cells activated by compounds, Panc-1 (CFSE/PI flow cytometry); format: cell-based; details: Homo sapiens, tumor cells treated with 20 μM compound 48 h, then mixed with NK cells 5:1 for 4 hours, CFSE+PI+ tumor cells, read-out: Panc-1 inhibition rate (%)
Procedure: (§2) Logarithmic growth phase of Lovo, HpeG-2, A549, k562, Panc-1 cells were collected and seeded in a 6-well plate at a density of 5×10^5/mL and 2 mL/well separately. The experimental group was treated with 20 μM final drug concentration of GJDx compounds, and the control group was treated with an equal volume of RPMI1640 medium. The groups were cultured at 37° C., saturated humidity, 5% CO2 for 48 h. After that, the cells of each group were collected, centrifuged and the supernatant was removed and resuspended in PBS at a density of 1×10^6/mL. Then 2 μL of CFSE stock solution (final concentration was 10 μM) was added into the cell suspension per 1 mL and cultured at 37° C. with 5% CO2 for 30 min, and then added 5-10 times of the volume of 4° C. pre-chilled RPM 1640 complete medium, and incubated on ice for 5 minutes, discarded the supernatant by centrifugation at 4° C., and wash the cells with fresh medium for 3 times. After that, mixing the labeled tumor cells and NK cells (the NK cell culture medium was α-MEM contained 1.5 g/L sodium bicarbonate, 12.5% fetal bovine serum, and 12.5% horse serum) according to the ratio of 5:1, the mixture cells was collected and washed with flow buffer twice after incubated for 4 hours, then 50 μg/mL PI was added, and incubated at room temperature for 15 minutes in the dark, and finally testing the percentage of CFSE^+PI^+ tumor cells on the flow cytometer.

k562 cells [7] = test: Anti-tumor activity of NK cells activated by compounds, k562 (CFSE/PI flow cytometry); format: cell-based; details: Homo sapiens, tumor cells treated with 20 μM compound 48 h, then mixed with NK cells 5:1 for 4 hours, CFSE+PI+ tumor cells, read-out: k562 inhibition rate (%)
Procedure: as §2

HpeG-2 cells [8] = test: Anti-tumor activity of NK cells activated by compounds, HpeG-2 (CFSE/PI flow cytometry); format: cell-based; details: tumor cells treated with 20 μM compound 48 h, then mixed with NK cells 5:1 for 4 hours; CFSE+PI+ tumor cells; read-out: HpeG-2 inhibition rate (%)
Procedure: as §2

Lovo cells [9] = test: Anti-tumor activity of NK cells activated by compounds, Lovo (CFSE/PI flow cytometry); format: cell-based; details: Homo sapiens, tumor cells treated with 20 μM compound 48 h, then mixed with NK cells 5:1 for 4 hours, CFSE+PI+ tumor cells, read-out: Lovo inhibition rate (%)
Procedure: as §2

A549 cells [10] = test: Anti-tumor activity of NK cells activated by compounds, A549 (CFSE/PI flow cytometry); format: cell-based; details: Homo sapiens, tumor cells treated with 20 μM compound 48 h, then mixed with NK cells 5:1 for 4 hours, CFSE+PI+ tumor cells, read-out: A549 inhibition rate (%)
Procedure: as §2

Row | SMILES | IC50 (k562 cells [1]; Homo sapiens) [µM] | inhibition at 20 µM (TNF-α) [%] | IC50 (Mia-paca2 cells; Homo sapiens, MIA PaCa-2, 48 h) [µM] | IC50 (A549 cells [2]; Homo sapiens) [µM] | IC50 (Panc-1 cells [3]; Homo sapiens) [µM] | IC50 (Lovo cells [4]; Homo sapiens) [µM] | IC50 (MGC-803 cells; Homo sapiens) [µM] | IC50 (HpeG-2 cells [5]) [µM] | IC50 (k562 cells [1]) [µM] | TNF-α inhibition rate (%) (TNF-α) | IC50 (Mia-paca2 cells; 48 h) [µM] | IC50 (A549 cells [2]) [µM] | IC50 (Panc-1 cells [3]) [µM] | IC50 (Lovo cells [4]) [µM] | IC50 (MGC-803 cells) [µM] | inhibition at 20 µM (Panc-1 cells [6]) [%] | inhibition at 20 µM (k562 cells [7]) [%] | inhibition at 20 µM (HpeG-2 cells [8]) [%] | inhibition at 20 µM (Lovo cells [9]) [%] | inhibition at 20 µM (A549 cells [10]) [%]
1 | O=C1CCC[C@@H]2[C@H]3CCCN4CCC[C@@H](CN12)[C@@H]34 [Matrine, matrine] | > 100 | < 50 | > 100 | > 100 | > 100 | 50 to 100 | > 100 | 50 to 100 |  |  |  |  |  |  |  |  |  |  |  | 
2 | O=C1c2cccc([N+](=O)[O-])c2C(=O)N1C1CC[C@@H]2[C@H]3CCC[N+]4([O-])CCC[C@@H](CN2C1=O)[C@@H]34 (stereo partly shown) [GJD 66] |  |  |  |  |  |  |  | < 50 | < 50 | <50 | 50 to 100 | < 50 | < 50 | < 50 | 50 to 100 |  |  |  |  | 
3 | Nc1cccc2c1C(=O)N(C1CC[C@@H]3[C@H]4CCC[N+]5([O-])CCC[C@@H](CN3C1=O)[C@@H]45)C2=O (stereo partly shown) [GJD 63] |  |  |  |  |  |  |  |  |  |  |  |  |  |  |  | > 50 | > 50 | > 50 | > 50 | > 50
4 | N#Cc1cccc2c1C(=O)N(C1CC[C@@H]3[C@H]4CCCN5CCC[C@@H](CN3C1=O)[C@@H]45)C2=O (stereo partly shown) [GJD 06] | 50 to 100 | > 50 | 50 to 100 | 50 to 100 | 50 to 100 | 50 to 100 | > 100 | < 50 |  |  |  |  |  |  |  |  |  |  |  | 
5 | O=C1c2ccccc2C(=O)N1C1CC[C@@H]2[C@H]3CCCN4CCC[C@@H](CN2C1=O)[C@@H]34 (stereo partly shown) [GJD 01] | 50 to 100 | ≥ 50 | > 100 | 50 to 100 | > 100 | 50 to 100 | > 100 | 50 to 100 |  |  |  |  |  |  |  | < 50 | < 50 | > 50 | ≥ 50 | > 50
6 | CC(=O)Oc1ccccc1C(=O)NC1CC[C@@H]2[C@H]3CCCN4CCC[C@@H](CN2C1=O)[C@@H]34 (stereo partly shown) [GJD 51] |  |  |  |  |  |  |  |  |  |  |  |  |  |  |  | < 50 | < 50 | > 50 | < 50 | < 50
7 | O=C(NC1CC[C@@H]2[C@H]3CCCN4CCC[C@@H](CN2C1=O)[C@@H]34)c1ccc(OC(F)F)c(OCC2CC2)c1 (stereo partly shown) [GJD 52] | 50 to 100 | > 50 | 50 to 100 | < 50 | 50 to 100 | 50 to 100 | 50 to 100 | < 50 |  |  |  |  |  |  |  |  |  |  |  | 
8 | Nc1cccc2c1C(=O)N(C1CC[C@@H]3[C@H]4CCCN5CCC[C@@H](CN3C1=O)[C@@H]45)C2=O (stereo partly shown) [GJD 02] | < 50 | > 50 | 50 to 100 | 50 to 100 | < 50 | < 50 | 50 to 100 | < 50 |  |  |  |  |  |  |  | > 50 | > 50 | > 50 | > 50 | > 50
9 | O=C(NC1CC[C@@H]2[C@H]3CCCN4CCC[C@@H](CN2C1=O)[C@@H]34)c1cc(Cl)ccc1O (stereo partly shown) [GJD 55] | 50 to 100 |  | 50 to 100 | < 50 | 50 to 100 | 50 to 100 | > 100 | < 50 |  |  |  |  |  |  |  | > 50 | < 50 | < 50 | < 50 | < 50
10 | O=C1c2cccnc2C(=O)N1C1CC[C@@H]2[C@H]3CCCN4CCC[C@@H](CN2C1=O)[C@@H]34 (stereo partly shown) [GJD 15] |  |  |  |  |  |  |  |  |  |  |  |  |  |  |  | > 50 | < 50 | > 50 | > 50 | > 50
11 | O=C1[C@H](N2C(=O)c3ccccc3C2=O)CC[C@@H]2[C@H]3CCCN4CCC[C@@H](CN12)[C@@H]34 [GJD 26] |  |  |  |  |  |  |  |  |  |  |  |  |  |  |  | > 50 | > 50 | > 50 | > 50 | > 50
12 | O=C1c2ccccc2CN1C1CC[C@@H]2[C@H]3CCCN4CCC[C@H](CN2C1=O)[C@@H]34 (stereo partly shown) [GJD 42] |  |  |  |  |  |  |  |  |  |  |  |  |  |  |  | < 50 | < 50 | > 50 | > 50 | > 50
13 | O=C1c2cccc([N+](=O)[O-])c2CN1C1CC[C@@H]2[C@H]3CCCN4CCC[C@@H](CN2C1=O)[C@@H]34 (stereo partly shown) [GJD 31] |  |  |  |  |  |  |  |  |  |  |  |  |  |  |  | ≥ 50 | > 50 | > 50 | > 50 | > 50
